According to patent US20040220094A1, “Inverse agonist and agonist peptides that stimulate/inhibit hair growth” (priority 2003, published 2004):
Non-standard residues stand in square brackets, D forms with d. Residues, ends and D or L forms follow the SMILES beside them. No end group written: not given here. *: point of attachment. Hydrocinnamoyl = O=C(CCc1ccccc1)*; Nle = CCCC[C@H](N)C(=O)O

Key:
[1] = molecular target: T1, PTH1R receptor (Homo sapiens, UniProt Q03431); assay: kidney-based assays; type: binding; conditions: kidney-based assay
T1 sequence (Q03431 27-593): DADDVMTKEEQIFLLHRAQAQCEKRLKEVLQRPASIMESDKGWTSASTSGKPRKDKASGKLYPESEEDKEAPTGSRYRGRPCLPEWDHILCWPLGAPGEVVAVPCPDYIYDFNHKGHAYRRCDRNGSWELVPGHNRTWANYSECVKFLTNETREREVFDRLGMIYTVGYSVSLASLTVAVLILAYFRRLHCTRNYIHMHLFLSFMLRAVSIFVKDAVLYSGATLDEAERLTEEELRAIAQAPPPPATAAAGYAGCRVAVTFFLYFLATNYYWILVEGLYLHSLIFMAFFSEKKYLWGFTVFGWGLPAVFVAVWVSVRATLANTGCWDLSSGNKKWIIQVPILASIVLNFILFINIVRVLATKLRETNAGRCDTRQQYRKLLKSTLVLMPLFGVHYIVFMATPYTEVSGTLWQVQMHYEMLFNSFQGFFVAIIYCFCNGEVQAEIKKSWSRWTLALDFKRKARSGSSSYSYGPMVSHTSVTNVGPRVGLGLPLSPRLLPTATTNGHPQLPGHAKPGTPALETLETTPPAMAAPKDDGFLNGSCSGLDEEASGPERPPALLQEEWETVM

[2] = molecular target: T1, PTH1R receptor; assay: bone-based assays; type: binding; conditions: bon-based assay
[3] = molecular target: T1, PTH1R receptor; assay: potency of inverse agonist peptides (assay not specified)
[4] = molecular target: T2, Type I PTH/PTHrP receptor (PTH1R receptor); assay: kidney-based assay
T2 chain: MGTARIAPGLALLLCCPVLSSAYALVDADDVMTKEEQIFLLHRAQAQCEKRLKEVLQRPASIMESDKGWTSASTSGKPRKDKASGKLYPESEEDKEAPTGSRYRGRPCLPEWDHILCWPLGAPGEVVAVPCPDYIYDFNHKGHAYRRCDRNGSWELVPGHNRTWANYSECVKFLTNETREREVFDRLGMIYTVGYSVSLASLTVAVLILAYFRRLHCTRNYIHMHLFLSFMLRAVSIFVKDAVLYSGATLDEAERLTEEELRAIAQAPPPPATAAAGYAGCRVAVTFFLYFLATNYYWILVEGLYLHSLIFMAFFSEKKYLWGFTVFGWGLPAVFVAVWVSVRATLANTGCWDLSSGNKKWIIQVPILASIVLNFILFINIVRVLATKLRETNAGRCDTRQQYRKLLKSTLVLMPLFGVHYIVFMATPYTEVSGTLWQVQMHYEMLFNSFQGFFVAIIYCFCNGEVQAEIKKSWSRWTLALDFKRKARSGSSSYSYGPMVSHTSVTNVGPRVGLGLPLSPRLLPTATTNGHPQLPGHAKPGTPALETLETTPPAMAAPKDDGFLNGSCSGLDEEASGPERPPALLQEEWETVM

[5] = molecular target: T2, Type I PTH/PTHrP receptor (PTH1R …); assay: bone-based assay

## CCCC[C@H](NC(=O)[C@H](CO)NC(=O)[C@H](CO)NC(=O)[C@H](CC(C)C)NC(=O)[C@H](Cc1c[nH]cn1)NC(=O)[C@H](CCCCNC(=O)CCc1ccccc1)NC(=O)CNC(=O)[C@H](CC(C)C)NC(=O)[C@H](CC(N)=O)NC(=O)[C@H](Cc1c[nH]cn1)NC(=O)[C@H](CCCC)NC(=O)[C@@H](N)Cc1ccccc1)C(=O)N[C@@H](CCC(=O)O)C(=O)N[C@@H](CCCNC(=N)N)C(=O)N[C@H](C(=O)N[C@@H](CCC(=O)O)C(=O)N[C@@H](Cc1c[nH]c2ccccc12)C(=O)N[C@@H](CC(C)C)C(=O)N[C@@H](CCCNC(=N)N)C(=O)N[C@@H](CCCCN)C(=O)N[C@@H](CCCCN)C(=O)N[C@@H](CC(C)C)C(=O)N[C@@H](CCC(N)=O)C(=O)N[C@@H](CC(=O)O)C(=O)N[C@H](C(=O)N[C@@H](Cc1c[nH]cn1)C(=O)N[C@@H](CC(N)=O)C(=O)N[C@@H](Cc1ccc(O)cc1)C(=O)O)C(C)C)C(C)C (H-F[Nle]HNLGK(Hydrocinnamoyl)HLSS[Nle]ERVEWLRKKLQDVHNY-OH; N-terminus and C-terminus assumed)
[1]
  Ki: 73 nM
[1]; read-out: Kbinding
  Kd: 4 nM
[2]
  Ki: 3.5 nM
[2]; read-out: Kbinding
  Kd: 9 nM

## Leu-Leu-His-Asn-Leu-Gly-Lys-Ser-Ile-Gln-Asp-Leu-Arg-Arg-Arg-Phe-Phe-Leu-His-His-Leu-Ile-Ala-Glu-Ile-His-Thr-Ala-NH2 (LLHNLGKSIQDLRRRFFLHHLIAEIHTA-NH2)
[3]; relative to PTHrP 7-34
  fold more potent than PTHrP 7-34: (which is 23 fold more potent than PTHrP 7-34);

## Leu-Leu-His-Asp-Leu-D-Trp-Lys(cyclization)-Ser-Ile-Gln-Asp(cyclization)-Leu-Arg-Arg-Arg-Phe-Phe-Leu-His-His-Leu-Ile-Ala-Glu-Ile-His-Thr-Ala-NH2
[3]
  potency: increased potency

B1: Phe-Nle-His-Asn-Leu-Gly-Lys-(epsilon-3-phenylpropanoyl)-His-Leu-Ser-Ser-Nle-Glu-Arg-Val-Glu-Trp-Leu-Arg-Lys-Lys-Leu-Gln-Asp-Val-His-Asn-Tyr (peptide)
peptide: FXHNLGKHLSSXERVEWLRKKLQDVHNY
modifications: Nle (norleucine) at peptide positions 2 and 12 (written X in letters); Lys at peptide position 7 carries epsilon-3-phenylpropanoyl
[4]
  Ki: 73 nM
[5]
  Ki: 3.5 nM
